Laboratory results published in the supplement of paper PMC11061612.

Legend:
AZD1775 = compound: C=CCn1c(=O)c2cnc(Nc3ccc(N4CCN(C)CC4)cc3)nc2n1-c1cccc(C(C)(C)O)n1 [AZD1775]; conditions: max 3 µM
In short: (§1)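 After 24 hours at 37°C and 5% CO2 in 1536-well plates holding 7.5 μl of DMEM/F12 or RPMI with 10% FBS, cancer cell lines were dosed for 72 hours, with final DMSO typically 0.2%. Viability came from CellTiter-Glo 2.0 luminescence, scaled between the means of blank wells and DMSO wells. A non-linear mixed effects model fitted a two-parameter logistic curve to each dose response to give the single-agent IC50.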

Alisertib = compound: COc1cc(Nc2ncc3c(n2)-c2ccc(Cl)cc2C(c2c(F)cccc2OC)=NC3)ccc1C(=O)O [Alisertib]; conditions: max 10 µM
In short: as §1

Palbociclib = compound: CC(=O)c1c(C)c2cnc(Nc3ccc(N4CCNCC4)cn3)nc2n(C2CCCC2)c1=O [Palbociclib]; conditions: max 10 µM
In short: as §1

AZD1390 = compound: CC(C)n1c(=O)n(C)c2cnc3cc(F)c(-c4ccc(OCCCN5CCCCC5)nc4)cc3c21 [AZD1390]; conditions: max 0.3 µM
In short: as §1

Prexasertib = compound: COc1cccc(OCCCN)c1-c1cc(Nc2cnc(C#N)cn2)n[nH]1 [Prexasertib]; conditions: max 1 µM
In short: as §1

Dasatinib = compound: CC1=C(C(=CC=C1)Cl)NC(=O)C2=CN=C(S2)NC3=CC(=NC(=N3)C)N4CCN(CC4)CCO [Dasatinib]; conditions: max 2 µM
In short: as §1

SN-38 = compound: CCc1c2c(nc3ccc(O)cc13)-c1cc3c(c(=O)n1C2)COC(=O)[C@]3(O)CC [SN-38]; conditions: max 0.3 µM
In short: as §1

Olaparib = compound: O=C(c1cc(Cc2n[nH]c(=O)c3ccccc23)ccc1F)N1CCN(C(=O)C2CC2)CC1 [Olaparib]
In short: as §1

SG3199 = compound: CC1=CN2[C@@H](C1)C=NC3=CC(=C(C=C3C2=O)OC)OCCCCCOC4=C(C=C5C(=C4)N=C[C@@H]6CC(=CN6C5=O)C)OC [SG3199]; conditions: max 0.001 µM
In short: as §1

Capivasertib = compound: C1CN(CCC1(C(=O)N[C@@H](CCO)C2=CC=C(C=C2)Cl)N)C3=NC=NC4=C3C=CN4 [Capivasertib]
In short: as §1

AZD8186 = compound: C[C@@H](Nc1cc(F)cc(F)c1)c1cc(C(=O)N(C)C)cc2c(=O)cc(N3CCOCC3)oc12 [AZD8186]; conditions: max 3 µM
In short: as §1

Savolitinib = compound: C[C@@H](c1ccc2nccn2c1)n1nnc2ncc(-c3cnn(C)c3)nc21 [Savolitinib]; conditions: max 1 µM
In short: as §1

Trametinib = compound: CC(=O)Nc1cccc(-n2c(=O)n(C3CC3)c(=O)c3c(Nc4ccc(I)cc4F)n(C)c(=O)c(C)c32)c1 [Trametinib]; conditions: max 1 µM
In short: as §1

Venetoclax = compound: CC1(C)CCC(CN2CCN(c3ccc(C(=O)NS(=O)(=O)c4ccc(NCC5CCOCC5)c([N+](=O)[O-])c4)c(Oc4cnc5[nH]ccc5c4)c3)CC2)=C(c2ccc(Cl)cc2)C1 [Venetoclax]; conditions: max 1 µM
In short: as §1

AZD0156 = compound: CN(C)CCCOc1ccc(-c2ccc3ncc4c(c3c2)n(C2CCOCC2)c(=O)n4C)cn1 [AZD0156]; conditions: max 3 µM
In short: as §1

Crizotinib = compound: C[C@@H](Oc1cc(-c2cnn(C3CCNCC3)c2)cnc1N)c1c(Cl)ccc(F)c1Cl [Crizotinib]; conditions: max 10 µM
In short: as §1

AZD6738 = compound: C[C@@H]1COCCN1C2=NC(=NC(=C2)C3(CC3)[S@](=N)(=O)C)C4=C5C=CNC5=NC=C4 [AZD6738]; conditions: max 10 µM
In short: as §1

AZD5153 = compound: COc1nnc2ccc(N3CCC(c4ccc(OCCN5CCN(C)C(=O)[C@H]5C)cc4)CC3)nn12 [AZD5153]; conditions: max 1 µM
In short: as §1

Doxorubicin = compound: COc1cccc2c1C(=O)c1c(O)c3c(c(O)c1C2=O)C[C@@](O)(C(=O)CO)C[C@@H]3O[C@H]1C[C@H](N)[C@H](O)[C@H](C)O1 [Doxorubicin]; conditions: max 1 µM
In short: as §1

AZD2811 = compound: CCN(CCO)CCCOc1ccc2c(Nc3cc(CC(=O)Nc4cccc(F)c4)[nH]n3)ncnc2c1 [AZD2811]; conditions: max 1 µM
In short: as §1

Selumetinib = compound: Cn1cnc2c(F)c(Nc3ccc(Br)cc3Cl)c(C(=O)NOCCO)cc21 [Selumetinib]; conditions: max 10 µM
In short: as §1

AZD7648 = compound: Cc1cc2ncnn2cc1Nc1ncc2c(n1)n(C1CCOCC1)c(=O)n2C [AZD7648]; conditions: max 10 µM
In short: as §1

Gefitinib = compound: COc1cc2ncnc(Nc3ccc(F)c(Cl)c3)c2cc1OCCCN1CCOCC1 [Gefitinib]; conditions: max 10 µM
In short: as §1

AZD4320 = compound: CN(CC[C@H](CSC1=CC=CC=C1)NC2=C(C=C(C=C2)S(=O)(=O)NC(=O)C3=CC=C(C=C3)N4CCC(CC4)[C@H](C5=CC=CC=C5C6=CC=C(C=C6)Cl)O)S(=O)(=O)C(F)(F)F)CCO [AZD4320]; conditions: max 1 µM
In short: as §1

AZD5991 = compound: Cc1c2c(nn1C)CSCc1cc(n(C)n1)CSc1cc(c3ccccc3c1)OCCCc1c(C(=O)O)n(C)c3c-2c(Cl)ccc13 [AZD5991]; conditions: max 1 µM
In short: as §1

Lapatinib = compound: CS(=O)(=O)CCNCc1ccc(-c2ccc3ncnc(Nc4ccc(OCc5cccc(F)c5)c(Cl)c4)c3c2)o1 [Lapatinib]; conditions: max 10 µM
In short: as §1

Taselisib = compound: Cc1nc(-c2cn3c(n2)-c2ccc(-c4cnn(C(C)(C)C(N)=O)c4)cc2OCC3)n(C(C)C)n1 [Taselisib]; conditions: max 10 µM
In short: as §1

Row | Cell Line | IC50, cell viability 72 h (AZD1775) | IC50, cell viability 72 h (Alisertib) | IC50, cell viability 72 h (Palbociclib) | IC50, cell viability 72 h (AZD1390) | IC50, cell viability 72 h (Prexasertib) | IC50, cell viability 72 h (Dasatinib) | IC50, cell viability 72 h (SN-38) | IC50, cell viability 72 h (Olaparib; max 10 µM) | IC50, cell viability 72 h (SG3199) | IC50, cell viability 72 h (Capivasertib; max 10 µM) | IC50, cell viability 72 h (AZD8186) | IC50, cell viability 72 h (Savolitinib) | IC50, cell viability 72 h (Trametinib) | IC50, cell viability 72 h (Venetoclax) | IC50, cell viability 72 h (AZD0156) | IC50, cell viability 72 h (Crizotinib) | IC50, cell viability 72 h (AZD6738) | IC50, cell viability 72 h (AZD5153) | IC50, cell viability 72 h (Doxorubicin) | IC50, cell viability 72 h (AZD2811) | IC50, cell viability 72 h (Selumetinib) | IC50, cell viability 72 h (AZD7648) | IC50, cell viability 72 h (Gefitinib) | IC50, cell viability 72 h (AZD4320) | IC50, cell viability 72 h (AZD5991) | IC50, cell viability 72 h (Lapatinib) | IC50, cell viability 72 h (Taselisib) | IC50, cell viability 72 h (Olaparib; max 3 µM) | IC50, cell viability 72 h (Capivasertib; max 3 µM)
1 | HuH-7 (Hepatocellular Carcinoma) | > 3000 nM | > 10000 nM | > 10000 nM | > 300 nM | > 1000 nM | > 2000 nM | > 300 nM | > 10000 nM | > 1 nM | > 10000 nM | > 3000 nM | > 1000 nM | > 1000 nM | > 1000 nM | > 3000 nM | > 10000 nM | > 10000 nM | > 1000 nM | > 1000 nM | > 1000 nM | > 10000 nM | > 10000 nM | > 10000 nM | > 1000 nM | > 1000 nM | > 10000 nM | > 10000 nM |  | 
2 | KMRC-20 (Kidney Carcinoma) | 1290 nM | 6920 nM | > 10000 nM | > 300 nM | 31.4 nM | 875 nM | 32.8 nM | > 10000 nM | > 1 nM | > 10000 nM | > 3000 nM | > 1000 nM | > 1000 nM | > 1000 nM | > 3000 nM | > 10000 nM | > 10000 nM | > 1000 nM | > 1000 nM | > 1000 nM | > 10000 nM | > 10000 nM | > 10000 nM | > 1000 nM | > 1000 nM | > 10000 nM | > 10000 nM |  | 
3 | L-428 (Hodgkin's Lymphoma) | 429 nM | > 10000 nM | > 10000 nM | > 300 nM | 23.3 nM | > 2000 nM | 46.9 nM | > 10000 nM | > 1 nM | > 10000 nM | > 3000 nM | > 1000 nM | > 1000 nM | > 1000 nM | > 3000 nM | > 10000 nM | 5400 nM | 130 nM | 106 nM | > 1000 nM | > 10000 nM | > 10000 nM | > 10000 nM | 475 nM | > 1000 nM | > 10000 nM | > 10000 nM |  | 
4 | LCLC-97TM1 (Non-Small Cell Lung Carcinoma) | 1380 nM | 3440 nM | > 10000 nM | > 300 nM | 28.3 nM | > 2000 nM | 75.6 nM | > 10000 nM | > 1 nM | > 10000 nM | > 3000 nM | > 1000 nM | 26.4 nM | > 1000 nM | > 3000 nM | 4840 nM | 2280 nM | 153 nM | > 1000 nM | > 1000 nM | 3190 nM | > 10000 nM | > 10000 nM | > 1000 nM | > 1000 nM | > 10000 nM | 3360 nM |  | 
5 | MHH-CALL-2 (B-Lymphoblastic Leukemia) | 1070 nM | 3120 nM | > 10000 nM | > 300 nM | 93.4 nM | > 2000 nM | 2.33 nM |  |  | > 10000 nM | > 3000 nM | > 1000 nM | > 1000 nM | > 1000 nM | > 3000 nM | 679 nM | 3260 nM | > 1000 nM |  | > 1000 nM | > 10000 nM | > 10000 nM | > 10000 nM | > 1000 nM | 150 nM | > 10000 nM | 9370 nM | > 3000 nM | 
6 | NCI-H209 (Small Cell Lung Carcinoma) | 373 nM | 7740 nM | > 10000 nM | > 300 nM | 18.1 nM | > 2000 nM | 0.637 nM | 1030 nM | > 1 nM | > 10000 nM | > 3000 nM | > 1000 nM | > 1000 nM | 978 nM | > 3000 nM | > 10000 nM | 2110 nM | > 1000 nM | 281 nM | 800 nM | > 10000 nM | > 10000 nM | > 10000 nM | 18.4 nM | > 1000 nM | > 10000 nM | > 10000 nM |  | 
7 | NCI-H720 (Other Solid Carcinomas) | 1480 nM |  |  |  | 441 nM |  | > 300 nM | > 10000 nM | > 1 nM |  |  |  |  |  | > 3000 nM |  | 6580 nM |  | > 1000 nM | 652 nM |  | > 10000 nM |  |  |  |  |  |  | 812 nM
8 | OE21 (Esophageal Squamous Cell Carcinoma) | 718 nM | > 10000 nM | > 10000 nM | > 300 nM | 43.3 nM | 1280 nM | 214 nM | > 10000 nM | > 1 nM | 5200 nM | > 3000 nM | > 1000 nM | > 1000 nM | > 1000 nM | > 3000 nM | > 10000 nM |  | 256 nM | > 1000 nM | > 1000 nM | > 10000 nM | > 10000 nM | 3380 nM | > 1000 nM | > 1000 nM | 6830 nM | 1030 nM |  | 
